Experimental data: patent publication US10457689B2, “Ammonium derivatives, a process for their preparation and pharmaceutical compositions containing them” (LES LABORATOIRES SERVIER, priority 2016, dated 2019)
Structures can show the parent of a compound that is named as a salt.

Legend:
Mcl-1 protein = Mcl-1 protein (Homo sapiens, UniProt Q07820); assay: Inhibition of Mcl-1 by the fluorescence polarisation technique; assay type: binding; conditions: fluorescence polarisation test; read-out: IC50 (M) Mcl-LFP
Mcl-1 protein, sequence (Q07820 whole entry): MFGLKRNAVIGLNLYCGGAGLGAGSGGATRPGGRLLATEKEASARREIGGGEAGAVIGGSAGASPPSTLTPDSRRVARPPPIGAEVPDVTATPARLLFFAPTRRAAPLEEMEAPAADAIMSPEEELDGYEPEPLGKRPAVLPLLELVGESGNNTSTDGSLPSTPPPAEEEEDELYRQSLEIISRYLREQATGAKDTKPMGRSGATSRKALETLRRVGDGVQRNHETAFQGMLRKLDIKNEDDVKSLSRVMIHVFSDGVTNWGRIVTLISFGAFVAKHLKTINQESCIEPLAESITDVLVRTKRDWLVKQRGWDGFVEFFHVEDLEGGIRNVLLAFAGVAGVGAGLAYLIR
Protocol: The relative, binding potency of each compound was determined via Fluorescence Polarisation (FP). The method utilised a Fluorescein labelled ligand (Fluorescein-βAla-Ahx-A-REIGAQLRRMADDLNAQY-OH; mw 2,765) which binds to the Mcl-1 protein (such that Mcl-1 corresponds to the UniProtKB® primary accession number: Q07820) leading to an increased anisotropy measured in milli-polarisation (mP) units using a reader. The addition of a compound which binds competitively to the same site as the ligand will result in a greater proportion of unbound ligand in the system indicated by a decrease in mP units.
An 11 point serial dilution of each compound was prepared in DMSO and 2 μl transferred into flat bottomed, low binding, 384-well plate (final DMSO concentration 5%), 38 μl of buffer (10 mM 4-(2-hydroxyethyl)-1-piperazineethanesolfonic acid [HEPES], 150 mM NaCl, 0.05% Tween 20, pH 7.4), containing the Fluorescein labelled ligand (final concentration 1 nM) and Mcl-1 protein (final concentration 5 nM) was then added.
Assay plates were incubated ˜2 hours at room temperature before FP was measured on a […] Synergy2 reader (Ex. 528 nm, Em. 640 nm, Cut off 510 nm) and mP units calculated. The binding of increasing doses of test compound was expressed as a percentage reduction in mP compared to a window established between ‘5% DMSO only’ and ‘100% inhibition’ controls. 11-point dose response curves were plotted with XL-Fit software using a 4-Parameter Logistic Model (Sigmoidal Dose-Response Model) and the inhibitory concentrations that gave a 50% reduction in mP (IC50) were determined.

[1] = tested on: H929 multiple myeloma tumour line; assay: In vitro cytotoxicity (MTT); assay type: cell-based; conditions: 48 hours exposure
Protocol: The cytotoxicity studies were carried out on the H929 multiple myeloma tumour line.
The cells are distributed onto microplates and exposed to the test compound for 48 hours.
The cell viability is then quantified by a colorimetric assay, the Microculture Tetrazolium Assay (Carmichael et al. Cancer Res. 1987, 47, 936-942).

[2] = Homo sapiens, NCI-H929, H929 cells

Row | Compound | IC50 (Mcl-1 protein) [M] | IC50 ([1]; H929 cells) [nM] | IC50 [1, 2] [nM]
1 | CCN(CC)C(=O)OC(C)[N+]1(C)CCN(CCOc2ccc(-c3c(-c4ccc(F)cc4)sc4ncnc(O[C@H](Cc5ccccc5OCc5ccnc(-c6ccccc6OC)n5)C(=O)O)c34)c(C)c2Cl)CC1 (stereo partly drawn) [Example 21, 4-[2-(4-{(5Sa)-4-[(1R)-1-carboxy-2-(2-{[2-(2-methoxyphenyl)pyrimidin-4-yl]methoxy}phenyl)ethoxy]-6-(4-fluorophenyl)thieno[2,3-d]pyrimidin-5-yl}-2-chloro-3-methylphenoxy)ethyl]-1-{1-[(diethylcarbamoyl)oxy]ethyl}-1-methylpiperazin-1-ium trifluoroacetate] | 1.96e-09 | 70.4 | 
2 | CCOC(=O)OC[N+]1(C)CCN(CCOc2ccc(-c3c(-c4ccc(F)cc4)sc4ncnc(OC(Cc5ccccc5OCc5ccnc(-c6ccccc6OC)n5)C(=O)O)c34)c(C)c2Cl)CC1 [Example 18, 4-[2-(4-{(5Sa)-4-[(1R)-1-carboxy-2-(2-{[2-(2-methoxyphenyl)pyrimidin-4-yl]methoxy}phenyl)ethoxy]-6-(4-fluorophenyl)thieno[2,3-d]pyrimidin-5-yl}-2-chloro-3-methylphenoxy)ethyl]-1-{[(ethoxycarbonyl)oxy]methyl}-1-methylpiperazin-1-ium] | 9.48e-10 |  | 1.74
3 | CCN(CC)C(=O)OC(C)[N+]1(C)CCN(CCOc2ccc(-c3c(-c4ccc(F)cc4)sc4ncnc(OC(Cc5ccccc5OCc5ccnc(-c6ccccc6OC)n5)C(=O)O)c34)c(Br)c2Cl)CC1 [Example 29, 4-[2-(3-bromo-4-{(5Sa)-4-[(1R)-1-carboxy-2-(2-{[2-(2-methoxyphenyl)pyrimidin-4-yl]methoxy}phenyl)ethoxy]-6-(4-fluorophenyl)thieno[2,3-d]pyrimidin-5-yl}-2-chlorophenoxy)ethyl]-1-{1-[(diethylcarbamoyl)oxy]ethyl}-1-methylpiperazin-1-ium trifluoroacetate] | 1.36e-09 | 136 | 
4 | 4-[2-(4-{(5Sa)-4-[(1R)-1-carboxy-2-(2-{[2-(2-methoxyphenyl)pyrimidin-4-yl]methoxy}phenyl)ethoxy]-6-(4-fluorophenyl)thieno[2,3-d]pyrimidin-5-yl}-2-chloro-3-methylphenoxy)ethyl]-1-{[(diethylcarbamoyl)oxy]methyl}-1-methylpiperazin-1-ium trifluoroacetate [Example 19] | 1.2e-09 | 1640 | 
5 | COc1ccccc1-c1nccc(COc2ccccc2CC(Oc2ncnc3sc(-c4ccc(F)cc4)c(-c4ccc(OCCN5CC[N+](C)(COC(=O)C(C)(C)C)CC5)c(Cl)c4C)c23)C(=O)O)n1 [Example 24, 4-[2-(4-{(5Sa)-4-[(1R)-1-carboxy-2-(2-{[2-(2-methoxyphenyl)pyrimidin-4-yl]methoxy}phenyl)ethoxy]-6-(4-fluorophenyl)thieno[2,3-d]pyrimidin-5-yl}-2-chloro-3-methylphenoxy)ethyl]-1-{[(2,2-dimethylpropanoyl)oxy]methyl}-1-methylpiperazin-1-ium trifluoroacetate] | 1.04e-09 | 2.52 | 
6 | COc1ccccc1-c1nccc(COc2ccccc2CC(Oc2ncnc3sc(-c4ccc(F)cc4)c(-c4ccc(OCCN5CC[N+](C)(COP(=O)([O-])OCc6ccccc6)CC5)c(Cl)c4C)c23)C(=O)O)n1 [Example 2, benzyl {4-[2-(4-{(5Sa)-4-[(1R)-1-carboxy-2-(2-{[2-(2-methoxyphenyl)pyrimidin-4-yl]methoxy}phenyl)ethoxy]-6-(4-fluorophenyl)thieno[2,3-d]pyrimidin-5-yl}-2-chloro-3-methylphenoxy)ethyl]-1-methylpiperazin-1-ium-1-yl}methyl phosphate] | 9.48e-10 |  | 10.9
7 | COc1ccccc1-c1nccc(COc2ccccc2CC(Nc2ncnc3sc(-c4ccc(F)cc4)c(-c4ccc(OCCN5CC[N+](C)(COP(=O)([O-])O)CC5)c(Cl)c4C)c23)C(=O)O)n1 [Example 8, N-[(5Sa)-5-{3-chloro-4-[2-(4-{[(hydroxyphosphinato)oxy]methyl}-4-methylpiperazin-4-ium-1-yl)ethoxy]-2-methylphenyl}-6-(4-fluorophenyl)thieno[2,3-d]pyrimidin-4-yl]-2-{[2-(2-methoxyphenyl)pyrimidin-4-yl]methoxy}-D-phenylalanine] | 9.48e-10 |  | 229

Continued, in another order:

Row | IC50 (Mcl-1 protein) [M] | Compound | IC50 ([1]; H929 cells) [nM] | IC50 [1, 2] [nM]
8 | 9.48e-10 | COc1ccccc1-c1nccc(COc2ccccc2CC(Oc2ncnc3sc(-c4ccc(F)cc4)c(-c4ccc(OCCN5CC[N+](C)(Cc6oc(=O)oc6C)CC5)c(Cl)c4C)c23)C(=O)O)n1 [Example 22, 4-[2-(4-{(5Sa)-4-[(1R)-1-carboxy-2-(2-{[2-(2-methoxyphenyl)pyrimidin-4-yl]methoxy}phenyl)ethoxy]-6-(4-fluorophenyl)thieno[2,3-d]pyrimidin-5-yl}-2-chloro-3-methylphenoxy)ethyl]-1-methyl-1-[(5-methyl-2-oxo-1,3-dioxol-4-yl)methyl]piperazin-1-ium trifluoroacetate] | 2.23 | 
9 | 9.48e-10 | COc1ccccc1-c1nccc(COc2ccccc2C[C@@H](Oc2ncnc3sc(-c4ccc(F)cc4)c(-c4ccc(OCCN5CC[N+](C)(Cc6oc(=O)oc6C)CC5)c(Cl)c4Br)c23)C(=O)O)n1 [Example 30, 4-[2-(3-bromo-4-{(5Sa)-4-[(1R)-1-carboxy-2-(2-{[2-(2-methoxyphenyl)pyrimidin-4-yl]methoxy}phenyl)ethoxy]-6-(4-fluorophenyl)thieno[2,3-d]pyrimidin-5-yl}-2-chlorophenoxy)ethyl]-1-methyl-1-[(5-methyl-2-oxo-1,3-dioxol-4-yl)methyl]piperazin-1-ium trifluoroacetate] | 2.81 | 
10 | 9.48e-10 | CCOC(=O)OC[N+]1(C)CCN(CCOc2ccc(-c3c(-c4ccc(F)cc4)sc4ncnc(OC(Cc5ccccc5OCc5ccnc(-c6ccccc6OC)n5)C(=O)O)c34)c(Br)c2Cl)CC1 [Example 26, 4-[2-(3-bromo-4-{(5Sa)-4-[(1R)-1-carboxy-2-(2-{[2-(2-methoxyphenyl)pyrimidin-4-yl]methoxy}phenyl)ethoxy]-6-(4-fluorophenyl)thieno[2,3-d]pyrimidin-5-yl}-2-chlorophenoxy)ethyl]-1-{[(ethoxycarbonyl)oxy]methyl}-1-methylpiperazin-1-ium trifluoroacetate] | 2.29 | 
11 | 1.06e-09 | COc1ccccc1-c1nccc(COc2ccccc2CC(Oc2ncnc3sc(-c4ccc(F)cc4)c(-c4ccc(OCCN5CC[N+](C)(COP(=O)([O-])O)CC5)c(Cl)c4Br)c23)C(=O)O)n1 [Example 5, {4-[2-(3-bromo-4-{(5Sa)-4-[(1R)-1-carboxy-2-(2-{[2-(2-methoxyphenyl)pyrimidin-4-yl]methoxy}phenyl)ethoxy]-6-(4-fluorophenyl)thieno[2,3-d]pyrimidin-5-yl}-2-chlorophenoxy)ethyl]-1-methylpiperazin-1-ium-1-yl}methyl hydrogen phosphate] |  | 55.4
12 | 1.17e-09 | CCN(CC)C(=O)OC[N+]1(C)CCN(CCOc2ccc(-c3c(-c4ccc(F)cc4)sc4ncnc(OC(Cc5ccccc5OCc5ccnc(-c6ccccc6OC)n5)C(=O)O)c34)c(Br)c2Cl)CC1 [Example 27, 1-[2-(3-bromo-4-{(5Sa)-4-[(1R)-1-carboxy-2-(2-{[2-(2-methoxyphenyl)pyrimidin-4-yl]methoxy}phenyl)ethoxy]-6-(4-fluorophenyl)thieno[2,3-d]pyrimidin-5-yl}-2-chlorophenoxy)ethyl]-1-{[(diethylcarbamoyl)oxy]methyl}-1-methylpiperazin-1-ium trifluoroacetate] | 1900 | 
13 | 1.12e-09 | COc1ccccc1-c1nccc(COc2ccccc2CC(Oc2ncnc3sc(-c4ccc(F)cc4)c(-c4ccc(OCCN5CC[N+](C)(COC(C)=O)CC5)c(Cl)c4C)c23)C(=O)O)n1 [Example 17, 1-[(acetyloxy)methyl]-4-[2-(4-{(5Sa)-4-[(1R)-1-carboxy-2-(2-{[2-(2-methoxyphenyl)pyrimidin-4-yl]methoxy}phenyl)ethoxy]-6-(4-fluorophenyl)thieno[2,3-d]pyrimidin-5-yl}-2-chloro-3-methylphenoxy)ethyl]-1-methylpiperazin-1-ium trifluoroacetate] | 2.15 | 
14 | 1.07e-09 | COc1ccccc1-c1nccc(COc2ccccc2CC(Oc2ncnc3sc(-c4ccc(F)cc4)c(-c4ccc(OCCN5CC[N+](C)(COC(C)=O)CC5)c(Cl)c4Br)c23)C(=O)O)n1 [Example 25, 1-[(acetyloxy)methyl]-4-[2-(3-bromo-4-{(5Sa)-4-[(1R)-1-carboxy-2-(2-{[2-(2-methoxyphenyl)pyrimidin-4-yl]methoxy}phenyl)ethoxy]-6-(4-fluorophenyl)thieno[2,3-d]pyrimidin-5-yl}-2-chlorophenoxy)ethyl]-1-methylpiperazin-1-ium trifluoroacetate] | 1.95 | 
